Test results reported in patent US20260193227A1, “THERAPEUTIC COMPOUNDS AND METHODS” (UNIVERSITY OF IOWA RESEARCH FOUNDATION, priority 2022, published 2026).

Columns and labels:
EUFA423F HA cells [1] = details: Clark et al. 2012; Howlett et al. 2002; cited from earlier work
RAD52-ssDNA interaction [2] = biological target: T1, RAD52-ssDNA interaction (Homo sapiens, UniProt P43351); experiment: FRET-based inhibition of the RAD52-ssDNA interaction; format: binding; details: for IC50: 6 nM RAD52, 1 nM Cy3-dT30-Cy5 ssDNA, 25° C., value ± fitting error; for selectivity towards RAD52 over RPA: in vitro FRET-based assays
T1 construct: 6xHis; made in house
T1 sequence (P43351 1-418): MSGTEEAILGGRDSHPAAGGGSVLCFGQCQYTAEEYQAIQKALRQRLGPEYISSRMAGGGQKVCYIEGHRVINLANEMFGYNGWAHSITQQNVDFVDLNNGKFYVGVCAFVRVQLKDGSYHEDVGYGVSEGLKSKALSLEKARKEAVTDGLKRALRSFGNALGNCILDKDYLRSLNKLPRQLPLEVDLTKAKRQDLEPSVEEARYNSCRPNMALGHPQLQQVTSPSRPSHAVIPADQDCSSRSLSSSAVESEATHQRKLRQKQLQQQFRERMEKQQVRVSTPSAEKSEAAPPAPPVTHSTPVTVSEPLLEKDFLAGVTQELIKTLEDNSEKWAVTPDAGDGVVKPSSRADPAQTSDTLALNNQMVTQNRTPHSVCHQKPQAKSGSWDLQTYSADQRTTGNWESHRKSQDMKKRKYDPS
Protocol: (§1) Proteins: The 6×His-tagged human RAD52 proteins (wild type and mutants) and untagged human RPA were expressed and purified as previously described in (Hengel S R, eLife. 2016; 5; Grimme J M, et al., Nucleic Acids Res. 2010; 38(9):2917-30; and Henricksen L A, et al., The Journal of biological chemistry. 1994; 269(15):11121-32). RPA and RAD52 protein concentrations were determined by measuring absorbance at 280 nm using extinction coefficients of 88,830 M^−1 cm^−1 and 40,470 M^−1 cm^−1, respectively.
(§2) FRET-based DNA binding and inhibition assays: FRET-based that monitor the RAD52-ssDNA, RPA-ssDNA and RAD52-RPA-ssDNA binding were carried out as previously described (Hengel S R, eLife. 2016; 5; Grimme J M, et al., Nucleic Acids Res. 2010; 38(9):2917-30; and Grimme J M, Spies M. FRET-based assays to monitor DNA binding and annealing by Rad52 recombination mediator protein. Methods in molecular biology (Clifton, NJ). 2011; 745:463-83) using Cary Eclipse Spectrofluorimeter (Agilent) at 25° C., in 5 mm quartz cuvettes, and in buffer containing 30 mM Tris-Acetate (pH 7.5) and 1 mM DTT. Cy3 dye was excited at 530 nm and its emission was monitored at 565 nm. Emission of Cy5 acceptor fluorophore excited through the energy transfer from Cy3 donor is monitored at 660 nm simultaneously with emission of Cy3 dye. Both the excitation and the emission slits were set to 10 nm. All experiments were carried out using 1 nM (molecules) Cy3-dT30-Cy5 ssDNA. The optimal concentrations of the RAD52 (6 nM) and RPA (1 nM) proteins were selected by titrating the respective protein into 1 nM Cy3-dT30-Cy5 solution, and chosen based on the largest separation of the FRET values corresponding to the protein bound and free DNA.
(§3) The inhibition of the RAD52-ssDNA, RPA-ssDNA and RAD52-RPA-ssDNA complexes was evaluated by titrating each compound to the respective complex, measuring Cy3 and Cy5 fluorescence, and calculating FRET as previously described (Hengel, S. R., et al., eLife, 5).
(§4) Spectral properties of many compounds overlapped with the Cy3 and Cy5 fluorescence. To correct the calculated FRET values for the compound signal, the fluorogenic compounds were titrated into buffer and into solution of 1 nM Cy3-dT30-Cy5. For all tested compounds, the change in the signal in the Cy3 and Cy5 channels with and without Cy3/Cy5-labeled DNA present was the same. […] To account for the dye fluorescence, for each compound concentration, the apparent change in FRET of the ssDNA in the presence the compound was subtracted from the respective FRET signal of the RAD52-ssDNA, RPA-ssDNA or RAD52-ssDNA-RPA complex at the same inhibitor concentration. The IC50 values were calculated by fitting the corrected FRET data to the four-parameter dose response model using GraphPad Prism. All data are shown as average for at least three independent experiments ±standard deviation. The IC50 values are presented with their respective fitting error.

RPA-ssDNA interaction = biological target: T2, RPA-ssDNA interaction (Homo sapiens, UniProt P27694); experiment: FRET-based inhibition of the RPA-ssDNA interaction; format: binding; details: 1 nM RPA, 1 nM Cy3-dT30-Cy5 ssDNA; value ± fitting error; N/A = no activity
T2 construct: made in house
T2 sequence (P27694 whole entry): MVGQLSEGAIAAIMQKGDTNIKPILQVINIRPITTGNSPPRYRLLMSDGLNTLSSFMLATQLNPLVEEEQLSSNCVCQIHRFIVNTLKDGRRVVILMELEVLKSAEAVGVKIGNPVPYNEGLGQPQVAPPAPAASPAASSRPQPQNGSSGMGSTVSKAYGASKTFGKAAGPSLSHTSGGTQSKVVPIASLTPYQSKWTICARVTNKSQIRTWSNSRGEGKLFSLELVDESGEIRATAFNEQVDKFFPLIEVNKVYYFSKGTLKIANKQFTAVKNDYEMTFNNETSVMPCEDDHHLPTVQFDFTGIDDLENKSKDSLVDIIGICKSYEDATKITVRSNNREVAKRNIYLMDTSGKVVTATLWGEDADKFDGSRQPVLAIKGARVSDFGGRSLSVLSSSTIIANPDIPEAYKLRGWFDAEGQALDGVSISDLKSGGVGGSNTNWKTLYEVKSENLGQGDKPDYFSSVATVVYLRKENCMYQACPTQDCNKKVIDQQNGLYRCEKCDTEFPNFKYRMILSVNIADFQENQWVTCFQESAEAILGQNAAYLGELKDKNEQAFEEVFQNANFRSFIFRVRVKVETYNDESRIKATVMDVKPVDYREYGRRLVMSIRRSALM
T2 sequence (P15927 whole entry partner): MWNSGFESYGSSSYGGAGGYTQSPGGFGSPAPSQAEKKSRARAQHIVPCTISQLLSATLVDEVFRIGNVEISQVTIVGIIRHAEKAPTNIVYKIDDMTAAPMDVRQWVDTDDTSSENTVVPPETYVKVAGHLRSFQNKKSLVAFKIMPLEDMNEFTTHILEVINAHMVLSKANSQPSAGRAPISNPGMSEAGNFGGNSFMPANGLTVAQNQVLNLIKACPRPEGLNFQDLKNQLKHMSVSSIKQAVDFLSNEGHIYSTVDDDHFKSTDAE
T2 sequence (P35244 whole entry partner): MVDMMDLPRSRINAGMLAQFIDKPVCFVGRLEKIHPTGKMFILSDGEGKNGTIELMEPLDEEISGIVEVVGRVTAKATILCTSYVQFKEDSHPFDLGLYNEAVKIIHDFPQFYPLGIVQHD
Protocol: as §1, §2, §3, §4

RPA-ssDNA-RAD52 complex = biological target: T3, RPA-ssDNA-RAD52 complex (Homo sapiens, UniProt P43351); experiment: FRET-based inhibition of the RPA-ssDNA-RAD52 complex; format: binding; details: for IC50: value ± fitting error, N/A = no activity
T3 construct: 6xHis; made in house
T3 sequence (P43351 1-418): T1 sequence (P43351 1-418)
Protocol: as §1, §2, §3, §4

EUFA423F cells [3] = experiment: CellTiter-Glo cell viability, BRCA2-mutated cells; format: cell-based, human; details: for toxicity towards EUFA423 cells: BRCA2-mutated cells, yes/no; for toxicity / selective toxicity towards BRCA2-mutated cells in cell viability assays: EUFA423F versus EUFA423F HA, CellTiter-Glo, 72 hours
From the text: (§5) Cell lines: EUFA423F cells that are derived from a Fanconi Anemia patient with complementation group D1 and have biallelic mutations (7691 insAT and 9900 insA) in BRCA2 that result in two different truncated forms of BRCA2 (Howlett N G, et al., Science (New York, NY). 2002; 297(5581):606-9) and its counterpart complemented with expression vector for full-length BRCA2 (EUFA HA) were a generous gift from Dr. Simon Powell, Molecular Biology Program, Radiation Oncology, Sloan-Kettering Cancer Center, New York, NY).
(§6) Cell proliferation assay: Selective toxicity of the compounds towards human BRCA2 deficient cells was tested in EUFA423F and its complement EUFA423F HA using CellTiter-Glo® Luminescent Cell Viability Assay (Promega, Madison, WI). The cell lines were maintained in DMEM (Gibco/ThermoFisher Scientific, Waltham, MA) supplemented with 10% FBS and 10 mM HEPES (Gibco/ThermoFisher Scientific, Waltham, MA). EUFA423F HA cells were routinely supplemented with G418 in order to maintain the BRCA2 expression plasmid. Both cell lines were seeded in sterile tissue culture treated, white opaque 384-well plates (Perkin Elmer Inc., Waltham, MA) 3000 cells/well for EUFA423F HA and 2500 cells/well for EUFA423F) and allowed to adhere for 24 hours. Compounds dissolved in DMSO were added in the concentration range of 0-100 μM. Controls were treated with equivalent DMSO volumes. The cells were treated with compounds for 72 hours (to ensure that all cells experienced at least two S-phases). Post treatment, the cells were washed, treated with the CellTiter-Glo® reagent was added and the plate was analyzed as using a Gen5 (ver2.1) luminosity plate reader. The luminescence that reports on ATP generation by the surviving cells was normalized for the DMSO treated control as 100%. The normalized luminescence (average±standard deviation for at least three independent measurements obtained with different cell passages) was plotted in GraphPad Prism as a function of compound concentration. Clonogenic Survival: EUFA423F and EUFA423F HA cells were seeded in a 96 well plate. Compounds dissolved in DMSO were added to final concentrations of 0, 50, and 100 μM for the compound of Example 8 and the compound of Example 1, and 0, 5, and 10 μM for the compounds of Examples 2-7. The cells were treated with compounds for 72 hours. Post treatment, cell cultures were harvested by collecting all non-adherent cells in the well, trypsinization of all adherent cells, combining, pelleting and then resuspending in fresh media. Cultures treated with DMSO only were subsequently counted using a hemocytometer and plated at a density of 2000, 200 and 20 cells per well in 6-well culture plates, equal volumes of cultures were plated each inhibitor concentration. Each treatment and cell density conditions for both cell lines were plated in triplicate. After expanding the colonies for a period of 8 days, cultures were fixed with a solution of 70% ethanol and crystal violet for clonogenic survival analysis. Pictures of individual wells were taken using GelCount (Version 1.3.0.4) by Oxford Optronix (Abingdon UK). A colony had to contain at least 50 cells to be counted. The number of surviving colonies following treatment are presented as a percentage of number of colonies in the experiment where the cells were treated with DMSO only.

EUFA423F HA cells [4] = experiment: CellTiter-Glo cell viability, BRCA2-complemented cells; format: cell-based, human; details: yes/no
From the text: as §5, §6

[5] = Solubility in cell culture medium; format: physicochemical; details: for solubility: plasma or biological fluid
RAD52-ssDNA interaction [6] = biological target: T1, RAD52-ssDNA interaction; details: Hengel et al. 2016; cited from earlier work
BRCA2-depleted cells = details: Hengel et al. 2016; cited from earlier work
EUFA423F cells [7] = details: Clark et al. 2012; cited from earlier work

Row | IC50 (RAD52-ssDNA interaction [2]) [nM] | IC50 (RPA-ssDNA interaction) [µM] | IC50 (RPA-ssDNA-RAD52 complex) [µM] | Structure (SMILES) | selectivity towards RAD52 over RPA (RAD52-ssDNA interaction [2]) | toxicity towards EUFA423 cells (EUFA423F cells [3]) | toxicity / selective toxicity towards BRCA2-mutated cells in cell viability assays (EUFA423F cells [3]) | toxicity towards EUFA423 HA (BRCA2-complemented cells) (EUFA423F HA cells [4]) | also measured
1 | – | – | – | CO[C@@]12[C@H](COC(N)=O)C3=C(C(=O)C(C)=C(N)C3=O)N1C[C@@H]1N[C@@H]12 [mitomycin C] | – | – | – | – | sensitivity of the BRCA2-complemented (HA) cell line to the agent (EUFA423F HA cells [1]): resistant
2 | 2840 ± 320 | 28.9 ± 4 | 4.55 ± 0.16 | O=C(Cn1cc([N+](=O)[O-])cc(Br)c1=O)c1c[nH]c2ccc(Cl)cc12 [Example 7] | shows selectivity towards RAD52 over RPA | yes | selectively toxic to BRCA2-mutated cells | no | –
3 | – | – | – | O=C(Cn1cc([N+](=O)[O-])cc(F)c1=O)c1c[nH]c2ccc(F)cc12 [Example 2] | shows selectivity towards RAD52 over RPA | yes | – | no | effect on the RPA-ssDNA-RAD52 complex (RPA-ssDNA-RAD52 complex; FRET titration): unable to dislodge RAD52; toxicity / selective toxicity towards BRCA2-mutated cells in cell viability assays (EUFA423F cells [3]; listed as Z58-54): selectively toxic to BRCA2-mutated cells; toxicity / selective toxicity towards BRCA2-mutated cells in cell viability assays (EUFA423F cells [3]; listed as Z5862216254): effective and specific in cell viability assays
4 | 2020 ± 120 | 1.12 ± 0.13 | 0.76 ± 0.05 | Cc1c([N+](=O)[O-])ccn(CC(=O)c2c[nH]c3ccc(Br)cc23)c1=O [Example 6] | shows selectivity towards RAD52 over RPA | no | failed to inhibit both BRCA2-mutated and BRCA2-complemented cells | no | solubility / aggregation in cell culture medium [5]: poorly soluble in cell culture medium
5 | – | – | – | Cc1ccn(CC(=O)c2c[nH]c3ccc(F)cc23)c(=O)c1[N+](=O)[O-] [Example 4] | shows selectivity towards RAD52 over RPA | yes | selectively toxic to BRCA2-mutated cells | no | solubility [5]: > 10 µM
6 | – | – | – | O=C(Cn1cc([N+](=O)[O-])cc(Cl)c1=O)c1c[nH]c2ccc(F)cc12 [Example 5] | shows selectivity towards RAD52 over RPA | yes | selectively toxic to BRCA2-mutated cells | no | –
7 | – | – | – | Oc1cc(O)c2c(c1)O[C@H](c1cc(O)c(O)c(O)c1)[C@H](O)C2 [EGC, epigallochatechin] | – | – | – | – | competition with ssDNA binding to RAD52 (RAD52-ssDNA interaction [6]): competed with ssDNA binding to RAD52; efficacy in BRCA2-depleted cells (BRCA2-depleted cells): effective
8 | 7970 ± 840 | 15.9 ± 1.4 | 7 ± 0.29 | Cc1cc([N+](=O)[O-])cn(CC(=O)c2c[nH]c3ccc(Cl)cc23)c1=O [Example 3] | shows selectivity towards RAD52 over RPA | yes | selectively toxic to BRCA2-mutated cells | no | solubility [5]: > 10 µM
9 | – | – | – | C[C@]1(c2nc3c(C(N)=O)cccc3[nH]2)CCCN1 [veliparib] | – | – | – | – | sensitivity of EUFA423F cells to the agent (EUFA423F cells [7]): sensitive; sensitivity of the BRCA2-complemented (HA) cell line to the agent (EUFA423F HA cells [1]): resistant
